These results are taken from patent publication US20240076347A1, “METHODS FOR PREVENTING FUNGAL INFECTIONS” (Cidara Therapeutics, Inc., priority 2016, published 2024).

For one series, the system named is C. albicans biofilms. As to the kind of experiment: Time lapse microscopy of biofilm formation. The note with it: up to 16 h. In kind it is cell-based, Candida albicans. The text has this:
The effective CD101 concentration obtained from the above experiments was used to monitor its effect on biofilm formation in real time using TLM, which involves capturing real-time images of a single frame at specific time intervals, allowing temporal monitoring of the interactions occurring between the drug and Candida biofilms. Captured images were combined in a time sequence, resulting in an animation depicting the sequence of events that occurred with the passage of time. Briefly, the discs with C. albicans (adhered for 90 min as above) were placed in a 35-mm-diameter glass-bottom Petri dish (MiTek Corp., Ashland, MA). […] Phase contrast images for this interaction were captured immediately from 0 h and followed up to 16-17 h on a Leica DMI 6000 B inverted microscope connected to a Retiga EXi Aqua camera (Q-imaging Vancouver British Columbia). To determine the structural changes in the maturing biofilm, both acquisition and analysis of a series of horizontal (xy) optical sections of the biofilm was done using Metamorph Imaging software (Molecular Devices, Downington, PA). Disc incubated with media alone was used as control.

The nature of series [1]: Tissue distribution in SD rats after IV dose. It is filed as in vivo. The note with it: Sprague-Dawley, rat, 5 mg/kg IV. How it is done: The in vitro activity of CD101 was evaluated against 153 A. fumigatus clinical isolates collected as part of the 2014 and 2015 JMI international SENTRY surveillance program. Susceptibility was determined by measuring the minimal effective concentration (MEC) values in accordance with CLSI broth microdilution guidelines (M38-A2). In vivo tissue distribution of CD101 in SD rats (N=3/time up to 5 d) after a 5 mg/kg IV CD101 dose. Plasma/tissue concentrations were measured by LC-MS/MS.

Series [2] deals with Candida albicans (ATCC SC5314). Nature of the series: Disseminated candidiasis in immunocompetent DBA/2 mice, prophylaxis, kidney fungal burden. It is filed as in vivo. How it is done:
Cultures of Candida albicans (ATCC SC5314) were grown overnight at 37° C. in an ambient atmosphere on Sabouraud agar. Cultures were removed from the incubator, aseptically transferred to tubes of phosphate buffered saline (PBS), and an optical density was determined at 600 nm. The cultures were diluted to provide a challenge inoculate of approximately 5.0 log10 CFU per mouse in a volume of 100 μL. Each animal was administered an intravenous (IV) challenge in a volume of 100 IL on Day 0. Instillation of the challenge constituted time 0 hour for the study.
Mice were treated with CD101 one time via subcutaneous (SC) injection prior to challenge on either Day −5, Day −3, Day −1 or Day 0 per Table 3. Micafungin and vehicle controls were administered on Day 0 as per Table 3. Day 0 treatment or control administration occurred immediately following the challenge. Test articles were administered in a volume of 0.5 mL.
The primary endpoint used to assess progress of the infection was mean CFU burden per gram of kidney tissue. At 24 hours post-challenge, mice were humanely euthanized via CO2 overexposure. Kidneys were aseptically removed, weighed, and transferred to sterile tubes containing 2 mL of PBS. Tissues were homogenized with a mini-bead beater. Serial dilutions of the tissue homogenates were plated on Sabouraud dextrose agar plates and incubated at 37° C. for 24-48 hours. CFU/g tissue was determined from colony counts.

The next series deals with C. albicans. Nature of the series: In vitro susceptibility testing (CLSI M27-A3). It is filed as cell-based. The note with it: Candida albicans, 24 h. How it is done:
(§1) Strains. Ten clinical Candida strains were used for the in vivo treatment studies, including four C. albicans, three C. glabrata, and three C. parapsilosis strains (Table 18). This group was selected to encompass phenotypic variability in susceptibility to triazoles and echinocandins and based on similar fitness in the animal model as defined by the amount of growth in control animals over 24 h. The organisms were maintained, grown, and quantified on Sabouraud's dextrose agar (SDA) plates.
(§2) In vitro susceptibility testing. All isolates were tested in accordance with the standards in CLSI document M27-A3. The MICs were determined visually after 24 h of incubation as the lowest concentration of drug that causes a significant diminution (≥50%) of growth compared to controls. MICs were determined on three separate occasions in duplicate.

For another series, the system named is C. glabrata. Nature of the series: In vitro susceptibility testing (CLSI M27-A3). In kind it is cell-based, Candida glabrata. To be noted: Nakaseomyces glabratus, 24 h. How it is done: as §1, §2
The format of series [3] is in vivo, Wistar rats. How it is done: Endpoints. The rats were monitored at a frequency appropriate for their clinical condition. Rat weights were recorded at least once daily to ensure animals remained within ethical limits.
Reduction in weight and general loss of condition due to estradiol treatment are also typical in this rat model. Colonization with C. albicans was determined by quantitative culture of daily vaginal lavage samples. Rats were euthanized 9 days post infection and C. albicans determined by quantitative culture of vaginal tissue (including uterine horns).

In series [4] the test system is Candida albicans ATCC SC5314. Nature of the series: Prophylaxis, neutropenic ICR mouse candidiasis model, kidney CFU. It is filed as in vivo. How it is done:
Candidiasis model: ICR mice (5/group) were rendered neutropenic by cyclophosphamide on Day −4 (150 mg/kg) and Day −1 (100 mg/kg), then challenged (Day 0) with Candida albicans ATCC SC5314 via IV (100 μL, […] CFU/mouse). Prior to challenge, mice were given one SC dose (5, 10, or 20 mg/kg) of CD101 on Day −5, Day −3, or Day −1. At 24 hours post-challenge, kidneys were removed for CFU enumeration.

The test system of series [5] is Aspergillus fumigatus ATCC. Nature of the series: Prophylaxis, neutropenic ICR mouse aspergillosis model, survival. In kind it is in vivo. The note with it: 14 days. How it is done:
Aspergillosis model: ICR mice (6/group) were rendered neutropenic by cyclophosphamide on Day −3 (6 mg/mouse), Day +1, and Day +4 (2 mg/mouse). Challenge with Aspergillus fumigatus ATCC via IV (100 μL, […] CFU/mouse) occurred on Day 0. Prior to challenge, mice were given one SC dose (5, 10 or 20 mg/kg) of CD101 on Day −5, Day −3, or Day −1. Survival was monitored for 14 days.

Read-outs that look alike come from different tables or passages of the source. Numbered stars: 1 amine (or outer) side, 2 acyl side, 3 side chain; on linkers, the order of the positions; unused ones are H or OH. Bridge positions count the residues as written; N and C are the ends. Square brackets hold non-standard residues; d marks the D form. Peptide text beside a SMILES is read from it. * marks the point of attachment. ξ: configuration not given here. Orn(4R-OH,5R-OCH2CH2NMe3+) = C[N+](C)(C)CCO[C@@H](N[*:3])[C@H](O)C[C@H](N[*:1])C(=O)[*:2]; pTerphenylCO(4''-OnC5H11) = CCCCCOc1ccc(-c2ccc(-c3ccc(C(=O)*)cc3)cc2)cc1; hTyr(3S-OH,4S-OH) = N[C@H](C(=O)O)[C@H](O)[C@@H](O)c1ccc(O)cc1; X1 = C[C@H]1CN([*:1])C(C(=O)[*:2])C1O; Hyp = O=C(O)[C@@H]1C[C@@H](O)CN1; ξT = CC(O)C(N)C(=O)O

In the case of `CCCCCOc1ccc(-c2ccc(-c3ccc(C(=O)N[C@H]4C[C@@H](O)[C@@H](OCC[N+](C)(C)C)NC(=O)C5C(O)[C@@H](C)CN5C(=O)[C@H]([C@@H](C)O)NC(=O)[C@H]([C@H](O)[C@@H](O)c5ccc(O)cc5)NC(=O)[C@@H]5C[C@@H](O)CN5C(=O)C(C(C)O)NC4=O)cc3)cc2)cc1` (stereo partly drawn) [CD101] ({pTerphenylCO(4''-OnC5H11)}-[Orn(4R-OH,5R-OCH2CH2NMe3+)][ξT][Hyp][hTyr(3S-OH,4S-OH)]T[X1]; lactam 1-C), the “biofilm formation in real time” value is “remained stunted and failed to grow into mature biofilms” in the series with C. albicans biofilms (0.25 μg/ml added to 3 h formed biofilms); “only adhered cells with stunted growth, which failed to grow into mature biofilms” in the series on C. albicans biofilms (0.25 μg/ml added to cells adhered 90 min). The half-life in series [1] (plasma, read-out: t1/2 in plasma (converted)) was 39 h; in series [1] (all tissues studied, read-out: t1/2 in tissues), 40 to 77 h. Also, the Kp in series [1] (liver, kidney, lung, spleen, read-out: tissue/plasma exposure ratios) was roughly 4. The “kidney CFU” value was “cleared the infection completely” in series [2] (3 mg/kg SC Day −1, all but one animal); “completely cleared the infection” in series [2] (3 mg/kg SC on Day −5 and Day −3 (two doses, inadvertent)); “cleared the infection completely” in series [2] (10 or 30 mg/kg SC at all pre-challenge time points, 24 hr harvest); “Complete clearance” in series [4] (10 mg/kg SC single dose at Day −3 and Day −1, 24 h post-challenge, all animals); “Complete clearance” in series [4] (20 mg/kg SC on Day −3, all but one animal); “reduced CFU burden regardless of prophylactic treatment day” in series [4] (20 mg/kg SC on Day −5, −3 or −1). Besides, the “kidney CFU” value in series [4] (5 or 10 mg/kg SC at Day −3 and Day −1) is reported as “significant decrease in CFU”. Also, the minimal inhibitory concentration (MIC) was 0.06 µg/mL in the series on C. albicans (strain 98-17); 0.03 µg/mL against C. albicans (strain 98-210); 0.06 µg/mL against C. albicans (strain 580); 0.06 µg/mL against C. albicans (strain K-1); 0.125 µg/mL in the series with C. glabrata (strain 5592); 1 µg/mL against C. glabrata (strain 10956 (FKS2_HS1_F659V)). In the series with C. glabrata (strain 35315), this compound yielded an MIC of 0.5 µg/mL. Further, in series [3] (all treatment doses and durations), the tolerability result was “well tolerated with no adverse events observed”. Moreover, the weight loss entry in series [3] (ovariectomised, estradiol-treated rats) is on record as “did not seem to be exacerbated”. The survival result was “increased survival when prophylaxis was given closer to challenge” in series [5] (5 mg/kg SC); “All animals in the 10 and 20 mg/kg groups survived” in series [5] (10 and 20 mg/kg SC, any prophylaxis day). In series [5] (5, 10 and 20 mg/kg SC on Day −5, −3 or −1), the “increases in survival compared with vehicle” value is on record as greater than 50%.
